According to US8846909B2, “Bicyclic heteroaryl kinase inhibitors and methods of use” (University of Rochester, priority 2010, dated 2014):

Target: T1, MLK3 (Homo sapiens, UniProt Q16584)
T1 construct: purchased Dundee DU8313
Assay: Radiometric filter plate MLK3 assay; further: 2 µM cold ATP (Km)
Assay type: biochemical
Details: read-out: MK3 IC50
Method: After a twenty minute incubation, the reactions were washed through filter plates and read on a scintillation counter. Results are shown in Table 10 below, in which +++ indicates ≦0.1 μM, ++ indicates >0.1 μM and ≦1 μM, and + indicates >1 μM.

T1 sequence (Q16584 whole entry): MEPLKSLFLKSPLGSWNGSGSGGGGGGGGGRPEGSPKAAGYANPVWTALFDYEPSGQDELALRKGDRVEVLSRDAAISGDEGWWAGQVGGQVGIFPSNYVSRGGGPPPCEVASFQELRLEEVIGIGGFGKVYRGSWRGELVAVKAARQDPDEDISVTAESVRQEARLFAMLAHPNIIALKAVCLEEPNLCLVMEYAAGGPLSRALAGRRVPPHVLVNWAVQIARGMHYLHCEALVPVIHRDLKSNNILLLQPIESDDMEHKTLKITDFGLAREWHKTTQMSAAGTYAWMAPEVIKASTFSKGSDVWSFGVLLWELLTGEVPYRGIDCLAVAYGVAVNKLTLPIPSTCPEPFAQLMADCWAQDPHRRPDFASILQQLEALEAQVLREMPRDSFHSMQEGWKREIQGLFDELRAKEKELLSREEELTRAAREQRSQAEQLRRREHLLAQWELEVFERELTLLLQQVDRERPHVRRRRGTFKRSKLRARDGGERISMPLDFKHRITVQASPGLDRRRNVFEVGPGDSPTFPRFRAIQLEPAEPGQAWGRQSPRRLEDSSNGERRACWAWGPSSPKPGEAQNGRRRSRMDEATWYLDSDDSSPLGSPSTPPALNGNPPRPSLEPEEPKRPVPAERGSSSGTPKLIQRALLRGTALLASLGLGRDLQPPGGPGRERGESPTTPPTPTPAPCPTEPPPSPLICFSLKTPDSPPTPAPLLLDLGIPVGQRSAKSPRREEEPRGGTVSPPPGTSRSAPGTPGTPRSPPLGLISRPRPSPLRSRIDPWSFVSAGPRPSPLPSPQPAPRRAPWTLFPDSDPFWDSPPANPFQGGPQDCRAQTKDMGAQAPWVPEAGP

IC50	Structure (SMILES)
< 100 nM	CCS(=O)(=O)N1CCN(Cc2ccc(-c3cnc4[nH]cc(-c5ccc6[nH]ccc6c5)c4c3)cc2)CC1 [Example 189]
> 1000 nM	COc1cc(-c2cnc3c(c2)C(=Cc2ccncc2)C(=O)N3)cc(OC)c1OC (single isomer, unassigned) [Example 129, (E)- and (Z)-3-pyridin-4-ylmethylene-5-(3,4,5-trimethoxy-phenyl)-1,3-dihydro-pyrrolo[2,3-b]pyridin-2-one]
< 100 nM	COc1cc(-c2cnc3[nH]cc(-c4ccc(N)cc4)c3c2)cc(OC)c1OC [Example 15, 4-(5-(3,4,5-trimethoxyphenyl)-1H-pyrrolo[2,3-b]pyridin-3-yl)aniline]
< 100 nM	CN1CCN(Cc2ccc(-c3cnc4[nH]cc(-c5ccc(C(N)=O)cc5)c4c3)cc2)CC1=O [Example 158, 4-{5-[4-(4-methyl-3-oxo-piperazin-1-ylmethyl)-phenyl]-1H-pyrrolo[2,3-b]pyridin-3-yl}-benzamide]
< 100 nM	COc1cc(-c2cnc3[nH]c(=O)n(-c4ccc5[nH]cnc5c4)c3n2)cc(OC)c1OC [Example 102, 1-(1H-benzo[d]imidazol-5-yl)-6-(3,4,5-trimethoxyphenyl)-1H-imidazo[4,5-b]pyrazin-2(3H)-one]
< 100 nM	CCOC(=O)N1CCN(Cc2ccc(-c3cnc4[nH]cc(-c5ccc6[nH]ccc6c5)c4c3)cc2)CC1 [Example 183]
< 100 nM	COc1cc(-c2cnc3[nH]c(=O)n(-c4ccc5[nH]ccc5c4)c3n2)cc(OC)c1OC [Example 40, 1-(1H-indol-5-yl)-6-(3,4,5-trimethoxyphenyl)-1H-imidazo[4,5-b]pyrazin-2(3H)-one]
> 1000 nM	O=c1[nH]c2ncc(-c3ccc(O)cc3)nc2n1CC1CC1 [Example 81, 1-(cyclopropylmethyl)-6-(4-hydroxyphenyl)-1H-imidazo[4,5-b]pyrazin-2(3H)-one]
> 1000 nM	O=c1[nH]c2ncc(-c3ccc(N4CCOCC4)cc3)nc2n1CC1CC1 [Example 86, 1-(cyclopropylmethyl)-6-(4-morpholinophenyl)-1H-imidazo[4,5-b]pyrazin-2(3H)-one]
> 1000 nM	O=c1[nH]c2ncc(-c3ccncc3)nc2n1CC1CC1 [Example 82, 1-(cyclopropylmethyl)-6-(pyridin-4-yl)-1H-imidazo[4,5-b]pyrazin-2(3H)-one]
< 100 nM	CC1CN(Cc2ccc(-c3cnc4[nH]cc(-c5ccc6[nH]ccc6c5)c4c3)cc2)CCN1C (centres unmarked) [Example 198, 5-(4-((3,4-dimethylpiperazin-1-yl)methyl)phenyl)-3-(1H-indol-5-yl)-1H-pyrrolo[2,3-b]pyridine]
> 1000 nM	CN1CCN(Cc2ccc(-c3c[nH]c4ncc(-c5ccc6[nH]ccc6c5)cc34)cc2)CC1 [Example 163, 5-(1H-indol-5-yl)-3-[4-(4-methyl-piperazin-1-ylmethyl)-phenyl]-1H-pyrrolo[2,3-b]pyridine]
> 1000 nM	O=c1[nH]c2ncc(-c3cc(Cl)cc(Cl)c3)nc2n1-c1ccc2[nH]ccc2c1 [Example 48, 6-(3,5-dichlorophenyl)-1-(1H-indol-5-yl)-1H-imidazo[4,5-b]pyrazin-2(3H)-one]
> 1000 nM	COc1cc(OC)c(-c2cnc3[nH]c(=O)n(C4CCCC4)c3n2)c(OC)c1 [Example 94, 1-cyclopentyl-6-(2,4,6-trimethoxyphenyl)-1H-imidazo[4,5-b]pyrazin-2(3H)-one]
> 1000 nM	COc1cc(-c2cnc3c(c2)C(Cc2ccncc2)C(=O)N3)cc(OC)c1OC (centres unmarked) [Example 136, 3-pyridin-4-ylmethyl-5-(3,4,5-trimethoxy-phenyl)-1,3-dihydro-pyrrolo[2,3-b]pyridin-2-one]
< 100 nM	O=c1[nH]c2ncc(-c3cc(F)c(O)c(F)c3)nc2n1-c1ccc2[nH]ccc2c1 [Example 59, 6-(3,5-difluoro-4-hydroxyphenyl)-1-(1H-indol-5-yl)-1H-imidazo[4,5-b]pyrazin-2(3H)-one]
> 1000 nM	COc1cc(-c2cnc3[nH]cc(-c4ccc5[nH]ccc5c4)c3c2)ccc1OCCN(C)C [Example 35, 2-(4-(3-(1H-indol-5-yl)-1H-pyrrolo[2,3-b]pyridin-5-yl)-2-methoxyphenoxy)-N,N-dimethylethanamine]
